Measurements taken from patent US8088757B2, “Betulinol derivatives as anti-cancer agents” (priority 2004, dated 2012).
Where two headings read alike, the source gives them in different places.

Legend:
[1] = Solubilization in PBS containing human γ-globulin, human albumin and ethanol; settings: 1 × 10^−3 mol/L
Source text: Human γ-Globulin and human albumin are two major biocompatible components in human serum.

LNCaP = assay: MTT cytotoxicity assay, LNCaP prostate cancer cells; type: cell-based, human; settings: Homo sapiens, read-out: Growth Inhibition %; for inhibition at 25 µM: 2.5 × 10^−5 M; for inhibition at 2.5 µM: 2.5 × 10^−6 M; for inhibition at 0.25 µM: 2.5 × 10^−7 M
Protocol: The human prostate cancer LNCaP, PC-3, and DU-145 cell lines, as well as human fibroblast cell line, were obtained from the American Type Culture Collection (“ATCC”) and maintained in RPMI-1640, F-12k, and MEM mediums, respectively, supplemented with 10% FBS. Cell lines were maintained at 37° C. under a humidified atmosphere and 5% CO2 for testing of the cytotoxicity of betulinol derivatives. The cytotoxicity assay was performed using MTT assay according to the instructions of ATCC protocol. Cells 1×10^5 in 0.1 ml/well were plated in 96-well culture plates (Costar) and incubated with a different dilution of betulinol derivatives for 24, 48, and 72 hours. Ten μl of 3-[4,5-dimethylthiazol-2-yl]-2,5 diphenyl tetrazolium bromide was added into each well at the end of each incubation period. The reaction product, formazan, was dissolved in the detergent, and the absorbance was read at 540 nm (Ref).
However, these compounds were not tested on prostate cancer LNCaP cell line by NCI. […] The anti-tumor activity of the compounds was determined at three doses and the total growth inhibition kill effect as pertinent of the control at 24, 48, and 72 hours as presented in Table 11.

[2] = 1.34 mg in 31 μL ethanol + 700 μL human serum
[3] = Solubility in DMSO diluted with culture medium (GC standard curve); settings: for State of solution: 0.5 mg/mL BA
Protocol: The residue was dissolved in chloroform analyzed on GC.
Ethyl ether was then evaporated. […] Concentration of drug in the above solutions was analyzed by GC and determined from the standard solubility curve.

184B5/HER = assay: In vitro cytotoxicity, Breast (1), 184B5/HER; type: cell-based; settings: 1 × 10^−4 M
LNCaP xenografts = test system: LNCaP xenografts; set-up: species or system athymic mice; settings: mouse, in vivo
Protocol: All the animal studies were performed according to the guidelines and approval of the Institutional Animal Care and Use Committee and Research Animal Resource Center of Weill Medical College of Cornell University, New York. Twelve mice of 13 weeks of age were purchased from The National Cancer Institute (NCI) and were housed in a pathogen-free environment under controlled conditions of light and humidity and with free access to food and water. LNCaP cells were grown in RPMI-1640 with 10% FBS until 80-90% confluent. Cells were scraped into PBS and collected by centrifugation. The LNCAP cell pellets were suspended in Matrigel (Ref) at 2.5×10^7 cells/ml. Mice were injected subcutaneously (“s.c.”) with 200 μl (5×10^6 cells) of the cell suspension at one site on the flank. Visible tumor grew after 7-8 days following implantation and mice were divided into three groups of four mice each.
Mice received s.c. injection daily for ten days. […] Tumors were measured daily with calipers, and tumor volumes were calculated by the formula: π/6(l×w×h). Animals were also weighed daily and monitored for general health status and vital signs of possible toxicity due to treatment. At the end of the treatment period, the animals were sacrificed and tumors were excised, weighed and prepared for immunohistochemical and histological studies. […]

In the case of `C=C(C)C1CCC2(C(=O)O)CC[C@]3(C)[C@H](CC[C@@H]4[C@@]5(C)CCC(=O)C(C)(C)[C@@H]5CC[C@]43C)C12` (stereo partly drawn) [Compound 4, Betulonic Acid], the Observation ([1]; ethanol 220 μL, γ-globulin 1.48 mL, albumin 0.49 mL) is reported as “Cloudy”, the Observation ([1]; ethanol 280 μL, γ-globulin 0 mL, albumin 2.50 mL) is reported as “Complete” and the Observation ([1]; ethanol 280 μL, γ-globulin (27 mg/mL in PBS) 2.50 mL, albumin (42 mg/mL in PBS) 0 mL) is reported as “Suspension”. The Observation ([1]; ethanol 308 μL, γ-globulin 0.69 mL, albumin 2.07 mL) was “Almost Clear”, the Observation ([1]; ethanol 330 μL, γ-globulin 1.48 mL, albumin 1.48 mL) was “Little Cloudy” and the Observation ([1]; ethanol 352 μL, γ-globulin 0.32 mL, albumin 2.85 mL) was “Clear”. It also gave an inhibition at 25 µM (LNCaP; 24 hours) of 11.4%, an inhibition at 2.5 µM (LNCaP; 24 hours) of 14.7% and an inhibition at 0.25 µM (LNCaP; 24 hours) of 3.01%. It also gave an inhibition at 25 µM (LNCaP; 48 hours) of 32.6%, an inhibition at 2.5 µM (LNCaP; 48 hours) of 43% and an inhibition at 0.25 µM (LNCaP; 48 hours) of 28.3%. The Observation [2] was “Clear Solution”, the State of solution ([3]; 3% DMSO in culture medium) was “Suspension” and the State of solution ([3]; 9% DMSO in culture medium) was “Suspension”. The State of solution ([3]; 14% DMSO in culture medium) was “Cloudy”, the State of solution ([3]; 20% DMSO in culture medium) was “clear solution” and the State of solution ([3]; 20% DMSO in culture medium, listed as BA) was “Clear”. The “amount of betulonic acid dissolved” value ([3]; out of 3 mg, 1% DMSO in culture medium containing 10% FBS, supernatant after centrifugation) was 0.4 mg, the “Percent Killed” value (184B5/HER) was “Toxic” and the “general health and vital signs during treatment” value (LNCaP xenografts) was “no adverse effects on vital signs”.
